Values of other authors as cited in patent US20220117915A1, “METHODS OF TREATING ACUTE STRESS DISORDER AND POSTTRAUMATIC STRESS DISORDER” (Tonix Pharma Holdings Limited, priority 2018, published 2022).
Each block holds one compound with its values, some of them ahead of it.

Assays:
[1] = ASD or very early PTSD
[2] = biological target: alpha-adrenergic-1A (α1A) receptor (Homo sapiens, UniProt P35348)
[3] = biological target: serotonergic-2A (5-HT2A) receptor (Homo sapiens, UniProt P28223)
Sequence of serotonergic-2A (5-HT2A) receptor (P28223 whole entry, species assumed): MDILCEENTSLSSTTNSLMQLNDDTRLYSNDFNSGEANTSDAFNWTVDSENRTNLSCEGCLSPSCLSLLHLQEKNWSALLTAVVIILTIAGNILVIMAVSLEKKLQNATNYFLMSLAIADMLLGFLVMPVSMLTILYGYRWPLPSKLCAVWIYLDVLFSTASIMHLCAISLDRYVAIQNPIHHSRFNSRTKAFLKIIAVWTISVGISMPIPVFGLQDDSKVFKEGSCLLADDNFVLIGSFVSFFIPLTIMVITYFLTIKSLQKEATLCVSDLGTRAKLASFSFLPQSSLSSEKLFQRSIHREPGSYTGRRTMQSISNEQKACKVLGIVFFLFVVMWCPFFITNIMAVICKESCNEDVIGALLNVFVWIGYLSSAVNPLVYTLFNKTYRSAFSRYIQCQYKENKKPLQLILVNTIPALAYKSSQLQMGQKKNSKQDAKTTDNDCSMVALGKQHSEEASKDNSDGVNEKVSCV

Sequence of alpha-adrenergic-1A (α1A) receptor (P35348 whole entry): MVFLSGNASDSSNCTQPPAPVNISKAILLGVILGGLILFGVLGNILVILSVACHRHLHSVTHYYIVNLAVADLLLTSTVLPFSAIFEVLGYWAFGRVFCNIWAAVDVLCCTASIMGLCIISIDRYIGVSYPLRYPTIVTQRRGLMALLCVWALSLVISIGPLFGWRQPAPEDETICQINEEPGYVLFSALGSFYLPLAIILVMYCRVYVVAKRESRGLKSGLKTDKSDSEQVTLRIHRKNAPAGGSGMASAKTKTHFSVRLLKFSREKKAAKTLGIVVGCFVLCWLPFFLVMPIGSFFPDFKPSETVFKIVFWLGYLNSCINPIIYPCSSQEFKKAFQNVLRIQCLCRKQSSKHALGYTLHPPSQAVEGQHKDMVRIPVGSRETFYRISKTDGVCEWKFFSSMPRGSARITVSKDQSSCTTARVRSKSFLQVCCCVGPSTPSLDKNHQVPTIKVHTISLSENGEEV

Structure (SMILES): CN(C)CCC[C@@]1(c2ccc(F)cc2)OCc2cc(C#N)ccc21 [escitalopram]
- preventing development of PTSD versus placebo [1]: failed to perform any better than the placebo

- α1A receptor antagonist activity [2]: potent
- 5-HT2A receptor antagonist activity [3]: potent
Structure (SMILES): CN(C)CCC=C1c2ccccc2C=Cc2ccccc21 [Cyclobenzaprine, 3-(5H-dibenzola[a,d]cyclohepten-5-ylidene)-N,N-dimethyl-1 propanamine]

Structure (SMILES): Fc1ccc([C@@H]2CCNC[C@H]2COc2ccc3c(c2)OCO3)cc1 [paroxetine]
- efficacy as a PTSD treatment (long-standing PTSD, average of 15 years since the trauma): offered patients with long-standing PTSD relief
- improvement by time since trauma (trauma more than 5 years prior to treatment versus more recent trauma): greater improvement
